The subject of the experiment is P388 leukemia ip, CD2F1 mice, survival T/C. The experiment is described as follows: NCI In Vivo Anticancer Drug Screen. Data for tumor model P388 Leukemia (intraperitoneal) in CD2F1 (CDF1) mice. To be noted: endpoint: median survival time, higher = longer survival. A digest of the protocol: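 Mice carrying the transplanted tumor received test compound or vehicle. Survival was recorded in each group, and the value is the treated-group measurement divided by that of the vehicle-treated control group.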

[1] abbreviates: dose: 50.0 mg/kg/injection, schedule: Q01DX009 (ip), vehicle: saline.
[2] abbreviates: dose: 100.0 mg/kg/injection, schedule: Q01DX009 (ip), vehicle: saline.
Where [3] appears, read: dose: 200.0 mg/kg/injection, schedule: Q01DX009 (ip), vehicle: saline.
Setting [4] is: dose: 25.0 mg/kg/injection, schedule: Q01DX009 (ip), vehicle: saline with Tween-80.
Where [5] appears, read: dose: 50.0 mg/kg/injection, schedule: Q01DX009 (ip), vehicle: saline with Tween-80.
Setting [6] is: dose: 100.0 mg/kg/injection, schedule: Q01DX009 (ip), vehicle: saline with Tween-80.

Each structure is given as a SMILES string. Several values for one entry are separate records, joined by “and”; a condition that tells them apart may be missing. Equal entries are not always repeated. Inconclusive results and toxic doses are left out.

Turning to `CO[C@@]12[C@H](COC(N)=O)C3=C(C(=O)C(C)=C(N)C3=O)N1C[C@@H]1N[C@@H]12`, the T/C was 160 % of control and 166 % of control (dose: 0.25 mg/kg/injection, schedule: Q01DX009 (ip), vehicle: saline with Tween-80); 150 % of control and 157 % of control and 210 % of control (dose: 0.5 mg/kg/injection, schedule: Q01DX009 (ip), vehicle: saline with Tween-80); 112 % of control (dose: 0.5 mg/kg/injection, schedule: Q04DX003 (ip), vehicle: saline); 160 % of control (dose: 0.65 mg/kg/injection, schedule: Q04DX002 (ip), vehicle: saline); 150 % of control and 163 % of control (dose: 0.75 mg/kg/injection, schedule: Q04DX003 (ip), vehicle: saline); 170 % of control (dose: 0.75 mg/kg/injection, schedule: Q04DX003 (ip), vehicle: water). In addition, the T/C is 152 % of control and 153 % of control (dose: 0.78 mg/kg/injection, schedule: Q04DX003 (ip), vehicle: saline); 150 % of control (dose: 0.97 mg/kg/injection, schedule: Q04DX003 (ip), vehicle: saline); 166 % of control and 169 % of control (dose: 1.0 mg/kg/injection, schedule: Q01DX009 (ip), vehicle: saline with Tween-80); 164 % of control (dose: 1.08 mg/kg/injection, schedule: Q04DX002 (ip), vehicle: saline); 159 % of control (dose: 1.1 mg/kg/injection, schedule: Q04DX003 (ip), vehicle: water); 163 % of control (dose: 1.3 mg/kg/injection, schedule: Q04DX002 (ip), vehicle: saline). For the same compound, the T/C (dose: 1.3 mg/kg/injection, schedule: Q04DX003 (ip), vehicle: saline) is 174 % of control and 180 % of control; the T/C (dose: 1.5 mg/kg/injection, schedule: Q04DX003 (ip), vehicle: saline) is 155 % of control and 161 % of control and 183 % of control; the T/C (dose: 1.5 mg/kg/injection, schedule: Q04DX003 (ip), vehicle: water) was 163 % of control and 200 % of control; the T/C (dose: 1.62 mg/kg/injection, schedule: Q04DX003 (ip), vehicle: saline) is 163 % of control; the T/C (dose: 1.8 mg/kg/injection, schedule: Q04DX002 (ip), vehicle: saline) is 175 % of control; the T/C (dose: 1.8 mg/kg/injection, schedule: Q04DX003 (ip), vehicle: water) was 174 % of control. In addition, the T/C reads like this: (dose: 2.0 mg/kg/injection, schedule: Q01DX009 (ip), vehicle: saline with Tween-80) 104 % of control and 120 % of control; (dose: 2.0 mg/kg/injection, schedule: Q04DX003 (ip), vehicle: saline) 163 % of control; (dose: 2.16 mg/kg/injection, schedule: Q04DX002 (ip), vehicle: saline) 162 % of control; (dose: 2.16 mg/kg/injection, schedule: Q04DX003 (ip), vehicle: saline) 155 % of control (2×) and 174 % of control; (dose: 2.7 mg/kg/injection, schedule: Q04DX003 (ip), vehicle: saline) 183 % of control and 204 % of control; (dose: 3.0 mg/kg/injection, schedule: Q01DX001 (ip), vehicle: saline) 169 % of control. Further, the T/C reads like this: (dose: 3.0 mg/kg/injection, schedule: Q04DX002 (ip), vehicle: saline) 212 % of control; (dose: 3.0 mg/kg/injection, schedule: Q04DX003 (ip), vehicle: water) 190 % of control and 197 % of control; (dose: 3.5 mg/kg/injection, schedule: Q01DX001 (ip), vehicle: carboxymethylcellulose (CMC)) 183 % of control; (dose: 3.6 mg/kg/injection, schedule: Q01DX001 (ip), vehicle: water) 175 % of control and 176 % of control; (dose: 3.6 mg/kg/injection, schedule: Q04DX002 (ip), vehicle: saline) 159 % of control; (dose: 3.6 mg/kg/injection, schedule: Q04DX003 (ip), vehicle: saline) 184 % of control and 220 % of control and 235 % of control. Moreover, the T/C reads like this: (dose: 4.0 mg/kg/injection, schedule: Q01DX001 (ip), vehicle: saline) 156 % of control and 167 % of control; (dose: 4.0 mg/kg/injection, schedule: Q04DX003 (ip), vehicle: saline) 150 % of control; (dose: 4.4 mg/kg/injection, schedule: Q01DX001 (ip), vehicle: saline) 158 % of control; (dose: 4.5 mg/kg/injection, schedule: Q04DX003 (ip), vehicle: saline) 219 % of control; (dose: 4.7 mg/kg/injection, schedule: Q01DX001 (ip), vehicle: saline) 174 % of control; (dose: 5.0 mg/kg/injection, schedule: Q04DX002 (ip), vehicle: saline) 157 % of control. Besides, the T/C (dose: 5.0 mg/kg/injection, schedule: Q04DX003 (ip), vehicle: water) is 228 % of control; the T/C (dose: 5.3 mg/kg/injection, schedule: Q01DX001 (ip), vehicle: carboxymethylcellulose (CMC)) was 191 % of control; the T/C (dose: 5.4 mg/kg/injection, schedule: Q01DX001 (ip), vehicle: water) was 184 % of control and 206 % of control and 216 % of control; the T/C (dose: 6.0 mg/kg/injection, schedule: Q01DX001 (ip), vehicle: saline) is 162 % of control and 166 % of control and 255 % of control; the T/C (dose: 6.0 mg/kg/injection, schedule: Q04DX002 (ip), vehicle: saline) was 120 % of control; the T/C (dose: 6.7 mg/kg/injection, schedule: Q01DX001 (ip), vehicle: saline) is 188 % of control. Also, the T/C (dose: 7.0 mg/kg/injection, schedule: Q01DX001 (ip), vehicle: saline) was 165 % of control; the T/C (dose: 7.5 mg/kg/injection, schedule: Q04DX003 (ip), vehicle: saline) was 122 % of control; the T/C (dose: 8.0 mg/kg/injection, schedule: Q01DX001 (ip), vehicle: water) is 178 % of control and 222 % of control and 280 % of control; the T/C (dose: 8.3 mg/kg/injection, schedule: Q04DX003 (ip), vehicle: water) is 87 % of control.

For the compound `CC(C)C(N)CO` (stereo unspecified), the T/C is 107 % of control under setting [1], 106 % of control under setting [2] and 100 % of control under setting [3].

In the case of `COc1ccc2c(c1)c(COC(C)=O)c(COC(C)=O)c[n+]2[O-]`, the T/C was 98 % of control (dose: 50.0 mg/kg/injection, schedule: Q01DX005 (ip), vehicle: Klucel (hydroxypropylcellulose) (HPC)); 97 % of control (dose: 100.0 mg/kg/injection, schedule: Q01DX005 (ip), vehicle: Klucel (hydroxypropylcellulose) (HPC)); 94 % of control (dose: 200.0 mg/kg/injection, schedule: Q01DX005 (ip), vehicle: Klucel (hydroxypropylcellulose) (HPC)).

In the case of `O=C(NC(O)C(Cl)(Cl)Cl)C(Cl)(Cl)Cl` (stereo unspecified), the T/C by setting is: (dose: 50.0 mg/kg/injection, schedule: Q01DX005 (ip), vehicle: saline with Tween-80) 100 % of control; (dose: 100.0 mg/kg/injection, schedule: Q01DX005 (ip), vehicle: saline with Tween-80) 95 % of control; (dose: 200.0 mg/kg/injection, schedule: Q01DX005 (ip), vehicle: saline with Tween-80) 107 % of control.

As to `c1cc2onc3c4cccc5onc(c(c1)c23)c54`, the T/C is, setting by setting: (dose: 8.75 mg/kg/injection, schedule: Q01DX005 (ip), vehicle: Klucel (hydroxypropylcellulose) (HPC)) 99 % of control; (dose: 17.5 mg/kg/injection, schedule: Q01DX005 (ip), vehicle: Klucel (hydroxypropylcellulose) (HPC)) 93 % of control; (dose: 35.0 mg/kg/injection, schedule: Q01DX005 (ip), vehicle: Klucel (hydroxypropylcellulose) (HPC)) 99 % of control.

Turning to `O=C1CCSC(=S)N1c1ccc(Cl)c([N+](=O)[O-])c1`, the T/C by setting is: under setting [4], 87 % of control; (dose: 25.0 mg/kg/injection, schedule: Q01DX009 (ip), vehicle: saline) 97 % of control; under setting [5], 88 % of control; under setting [1], 104 % of control; (dose: 50.0 mg/kg/injection, schedule: Q01DX009 (ip), vehicle: suspension in saline) 103 % of control; under setting [6], 98 % of control. Moreover, the T/C is 97 % of control under setting [2]; 109 % of control (dose: 100.0 mg/kg/injection, schedule: Q01DX009 (ip), vehicle: suspension in saline); 115 % of control (dose: 200.0 mg/kg/injection, schedule: Q01DX009 (ip), vehicle: saline with Tween-80); 97 % of control under setting [3].

Regarding `Cc1ccc(SC2=C(Sc3ccc(C)cc3)C(=O)c3ccccc3C2=O)cc1`, the T/C is, setting by setting: under setting [4], 102 % of control and 88 % of control; under setting [5], 116 % of control and 96 % of control; under setting [6], 99 % of control and 123 % of control.

As to `C/C(=N/NC(N)=S)C1CCC2C3CCC4CCCCC4(C)C3CC(O)C12C` (stereo unspecified), the T/C is, setting by setting: (dose: 12.5 mg/kg/injection, schedule: Q01DX009 (ip), vehicle: saline with Tween-80) 101 % of control; under setting [4], 93 % of control; under setting [5], 92 % of control.

As to `CNC(=O)Nc1[nH]c(=O)ncc1Cl`, the T/C is, setting by setting: (dose: 60.0 mg/kg/injection, schedule: Q01DX005 (ip), vehicle: saline with Tween-80) 112 % of control; (dose: 120.0 mg/kg/injection, schedule: Q01DX005 (ip), vehicle: saline with Tween-80) 113 % of control.

For the origin of these results see PubChem BioAssay AID330 (DTP/NCI, 2004).
